# Assay results taken from US20050215621A1, “Method of treating amyloid beta precursor disorders” (Andrx Labs, LLC, priority 1999, published 2005).
# What was measured:
# [1] = test system: H4, MDCK, and CHO cells, expressing human APPm; assay: [35S]-Met pulse-chase, immunoprecipitation (antibody 6E10) and autoradiography of Aβ peptides after 4 days with compound; format: cell-based, canine, Chinese hamster; details: for decrease of extracellular Aβ peptides as compared to the untreated cells: 0.5 μM, 4 days, H4, MDCK, CHO cells
# Method: (§1) The three cell lines utilized were: Chinese Hamster Ovary (CHO) cells expressing the 751 amino acid form of APP; Mabin-Darby Canine Kidney (MDCK) cells which overexpress the 695 amino acid form of APP; Human neuroglioma (H4) cells overexpressing the 695 form of human APP. All cells were prepared by the stable introduction of a cDNA coding for human APP. All cell lines were maintained in DMEM containing 10% FBS and antibiotics.
# In order to characterize the effects of cholesterol depletion, cell cultures of each cell line were cultured on six-well plates for 4 days in DMEM containing 10% FCLPDS, in the presence of lovastatin or lovastatin acid (LA).
# For measurement of APP processing and Aβ peptide formation, medium was removed and the cells were washed once with PBS and then incubated for 2 hours in DMEM containing 1 mCi/ml [^35S] Methionine. After this “pulse” period, the cells were either (1) lysed to measure the total labeled APPi and APPm at time zero, or (2) the cells were incubated for 2 hours in fresh, unlabeled complete medium (“chase”) and then lysed. Then the cell supernatants and lysates were treated with the appropriate antibody to calculate the amounts of APPi, APPm, APPs, and Aβ peptides.
# To measure Aβ peptides, or to measure APPs, which is the secreted carboxyl-terminal truncated form, cell supernatants were incubated with antibody 6E10,which recognizes the first 15 amino acids of the Aβ peptide that correspond to the COOH-terminal amino acids of APPs. See Buxbaum, J. D., et al. (I 994) Proc Natl Acad Sci USA, 91:4489-93, which is incorporated herein by reference.
# The incubations with antibody 6E10 or antibody 369 were performed at 4° C. for 75 minutes followed by a 45 minute incubation at 4° C. with either agarose-linked anti-mouse IgG for antibody 6E1O or protein A sepharose for antibody 369. The beads were then washed three times for 10 minutes and then run on either a 10-20% Tris-Tricine Gel for APPs and Aβ peptides or an 8% polyacrylamide gel for cell-associated APP. The gels were dried and exposed to a Phosphor Imager® screen (STORM 860, Molecular Dynamics) and exposed for a minimum of two days. The protein bands were visualized on a STORM 860 Phosphor Imager® (Molecular Dynamics) and quantitated using ImageQuant® (Molecular Dynamics).
# To determine whether a decrease in cholesterol is associated with a change in the amount of extracellular Aβ peptides, the H4, MDCK, and CHO cells, expressing human APPm were incubated for 4 days in the presence or absence of 0.5 μM LA. The cells were then incubated in serum-free media containing 1 mCi/mi [^35S] […] Relative levels of extracellular Aβ peptides were determined under each condition by quantitative PhosphorImager autoradiography. […]
# [2] = test system: Human neuroglioma (H4) cells overexpressing the 695 form of human APP; assay: APP processing ([35S]-labeled APPs and APPm) in H4 cells; format: cell-based
# Method: as §1
# For measurement of APP processing and Aβ peptide formation, medium was removed and the cells were washed once with PBS and then incubated for 2 hours in DMEM containing 1 mCi/ml [^35S] Methionine. […]
# The incubations with antibody 6E10 or antibody 369 were performed at 4° C. for 75 minutes followed by a 45 minute incubation at 4° C. with either agarose-linked anti-mouse IgG for antibody 6E1O or protein A sepharose for antibody 369. […] The protein bands were visualized on a STORM 860 Phosphor Imager® (Molecular Dynamics) and quantitated using ImageQuant® (Molecular Dynamics).
# To determine whether cholesterol depletion affects other aspects of APP processing, H4 cells were incubated for four days in the presence or absence of 0.5 μM LA, and subjected to metabolic labeling. The levels of [^35S]-labeled APPi and APPm were determined by immunoprecipitation from cell lysates with an antibody against the COOH-terminal of APP, followed by quantitative autoradiography. […]
Compound,[35S]-labeled intracellular Aβ peptides in cell lysates ([1]; 0.5 μM LA),decrease of extracellular Aβ peptides as compared to the untreated cells [1],"concentration sufficient to significantly (p<0.001) decrease extracellular Aβ peptides ([1]; each cell type, various LA concentrations) [µM]",effects on maturation ([35S]-labeled APPm levels) ([2]; 0.5 μM LA (FIG. 6)),"[35S]-labeled APPs formation compared to control cells ([2]; H4 cells, 0.5 μM LA, 4 days (FIG. 5))"
"CC[C@H](C)C(=O)O[C@H]1C[C@@H](C)C=C2C=C[C@H](C)[C@H](CC[C@@H](O)C[C@@H](O)CC(=O)O)[C@H]21 [LA, lovastatin acid]",No detectable levels,40-60%,≥ 0.05,not sufficient to account for the decrease in Aβ peptide levels,modest decrease
CC[C@H](C)C(=O)O[C@H]1C[C@@H](C)C=C2C=C[C@H](C)[C@H](CC[C@@H]3C[C@@H](O)CC(=O)O3)[C@H]21 [lovastatin],–,< 20%,–,–,–
